These results are taken from patent US5840684A, “Glycopeptide antibiotic derivatives” (Eli Lilly and Company, priority 1995, dated 1998).

The test system of experiment [1] is Staphylococcus aureus S13E. It is filed as cell-based. The protocol:
(§1) The MIC's were determined using a standard broth micro-dilution assay.

Experiment [2] deals with Staphylococcus aureus SA1199B. It counts as cell-based. The method, then: as §1
In experiment [3] the test system is Entercoccus faecium 180-1. Put plainly: broth micro-dilution MIC. It counts as cell-based. The method, then:
as §1
(In broth dilution the organism is exposed to a series of concentrations in liquid medium.)

Experiment [4] relates to Entercoccus faecium 276. As to the kind of experiment: broth micro-dilution MIC. It counts as cell-based. The protocol: as §1
Experiment [5] relates to Staphylococcus aureus 446. Put plainly: broth micro-dilution MIC. It counts as cell-based. The protocol:
as §1

The subject of experiment [6] is Staphylococcus aureus 447. As to the kind of experiment: broth micro-dilution MIC. It counts as cell-based. The method, then:
as §1

Experiment [7] relates to Staphylococcus aureus SA1199A. As to the kind of experiment: broth micro-dilution MIC. It counts as cell-based. The protocol:
as §1

The test system of experiment [8] is Staphylococcus aureus SA1199. As to the kind of experiment: broth micro-dilution MIC. It counts as cell-based. The protocol:
as §1

The test system of experiment [9] is Staphylococcus aureus X778. As to the kind of experiment: broth micro-dilution MIC. It is filed as cell-based. The protocol: as §1
The subject of experiment [10] is Streptococcus pyogenes C203. Put plainly: broth micro-dilution MIC. It is filed as cell-based. The protocol:
as §1

Experiment [11] deals with Entercoccus faecium 180. As to the kind of experiment: broth micro-dilution MIC. It counts as cell-based. To be noted: Entercoccus faecium 180. The method, then: (§2) The formula I compounds have in vitro and in vivo activity against Gram-positive pathogenic bacteria. The MIC's were determined using a standard broth micro-dilution assay.
Experiment [12] has as its system Entercoccus faecium 2041. Put plainly: broth micro-dilution MIC. It is filed as cell-based. Conditions: Entercoccus faecium 2041. The protocol: as §2
Experiment [13] deals with Enterococcus gallinarum 245. Put plainly: broth micro-dilution MIC. It is filed as cell-based. To be noted: Enterococcus gallinarum 245. The method, then:
as §2

Experiment [14] relates to Haemophilus influenzae RD. As to the kind of experiment: broth micro-dilution MIC. Conditions: Haemophilus influenzae RD. It is filed as cell-based. The method, then: as §2
Experiment [15] relates to Staphylococcus epidermidis 270. Put plainly: broth micro-dilution MIC. It counts as cell-based. The protocol:
as §2

In experiment [16] the test system is Staphylococcus haemolyticus 105. Put plainly: broth micro-dilution MIC. It is filed as cell-based. The method, then:
as §2

The test system of experiment [17] is Staphylococcus haemolyticus 415. Put plainly: broth micro-dilution MIC. It counts as cell-based. The protocol:
as §2

Experiment [18] deals with Streptococcus pneumoniae P1. As to the kind of experiment: broth micro-dilution MIC. It is filed as cell-based. The method, then: as §2
The subject of experiment [19] is vancomycin-resistant enterococci. As to the kind of experiment: broth micro-dilution, mean geometric MIC. It is filed as cell-based, Enterococcus faecium and Enterococcus faecalis. Conditions: enterococci, 24-hour incubation.
Experiment [20] has as its system vancomycin-susceptible enterococci. Put plainly: broth micro-dilution, mean geometric MIC. To be noted: enterococci, 24-hour incubation. It is filed as cell-based, Enterococcus faecium and Enterococcus faecalis.
In experiment [21] the test system is Staphylococcus aureus X400. As to the kind of experiment: broth micro-dilution MIC. It is filed as cell-based. The method, then: as §1

Converted amounts (≈) assume the structure as drawn.

For `CNC(CC(C)C)C(=O)NC1C(=O)NC(CC(N)=O)C(=O)NC2C(=O)NC3C(=O)NC(C(=O)NC(C(=O)O)c4cc(O)cc(O)c4-c4cc3ccc4O)C(OC3CC(C)(N)C(O)C(C)O3)c3ccc(c(Cl)c3)Oc3cc2cc(c3OC2OC(CO)C(O)C(O)C2OC2CC(C)(NCc3ccc(N(C)c4ccccc4)cc3)C(O)C(C)O2)Oc2ccc(cc2Cl)C1O` (stereo not shown) [Compound 178], the MIC in [1] is 0.5 µg/mL (≈ 0.28 µM); in [2] it was 1 µg/mL (≈ 0.559 µM); in [3], at most 0.06 µg/mL; in [4] it was 0.5 µg/mL (≈ 0.28 µM); in experiment [5] it was 1 µg/mL (≈ 0.559 µM); in experiment [6], 0.5 µg/mL (≈ 0.28 µM). Also, the MIC in experiment [7] was at most 0.06 µg/mL; in experiment [8], 1 µg/mL (≈ 0.559 µM); in experiment [9] it was 1 µg/mL (≈ 0.559 µM); in [10] it was at most 0.06 µg/mL; in [11], 0.25 µg/mL (≈ 0.14 µM); in experiment [12] it was at most 0.06 µg/mL. Moreover, the MIC in [13] was 2 µg/mL (≈ 1.12 µM); in experiment [14] it was 4 µg/mL (≈ 2.24 µM); in experiment [15], 0.25 µg/mL (≈ 0.14 µM); in experiment [16], 1 µg/mL (≈ 0.559 µM); in experiment [17], 2 µg/mL (≈ 1.12 µM); in experiment [18] it was at most 0.06 µg/mL. The “mean geometric MIC, Vancomycin Resistant Strains” value in [19] was determined as 2.8 µg/mL. Besides, the “mean geometric MIC, Vancomycin Sensitive Strains” value in experiment [20] was determined as 0.13 µg/mL.
As to `CNC(CC(C)C)C(=O)NC1C(=O)NC(CC(N)=O)C(=O)NC2C(=O)NC3C(=O)NC(C(=O)NC(C(=O)O)c4cc(O)cc(O)c4-c4cc3ccc4O)C(OC3CC(C)(N)C(O)C(C)O3)c3ccc(c(Cl)c3)Oc3cc2cc(c3OC2OC(CO)C(O)C(O)C2OC2CC(C)(NCCCCCCCCOc3ccc(OC)cc3)C(O)C(C)O2)Oc2ccc(cc2Cl)C1O` (stereo not shown) [Compound 200], the MIC in experiment [1] was 0.5 µg/mL (≈ 0.274 µM); in [2], 1 µg/mL (≈ 0.547 µM); in [3] it was at most 0.06 µg/mL; in [4] it was 0.5 µg/mL (≈ 0.274 µM); in [5] it was 1 µg/mL (≈ 0.547 µM); in experiment [6] it was 0.5 µg/mL (≈ 0.274 µM). The MIC in experiment [7] is at most 0.06 µg/mL; in experiment [8], 1 µg/mL (≈ 0.547 µM); in [21] it was 1 µg/mL (≈ 0.547 µM); in [9], 0.5 µg/mL (≈ 0.274 µM); in [10], at most 0.06 µg/mL; in [12], at most 0.06 µg/mL. Besides, the MIC in experiment [13] was 2 µg/mL (≈ 1.09 µM); in experiment [14], 32 µg/mL (≈ 17.5 µM); in [16], 1 µg/mL (≈ 0.547 µM); in [17], 2 µg/mL (≈ 1.09 µM); in experiment [18] it was at most 0.06 µg/mL. For the same molecule, the “mean geometric MIC, Vancomycin Resistant Strains” value in [19] was 1.4 µg/mL. In experiment [20], the “mean geometric MIC, Vancomycin Sensitive Strains” value worked out at 0.041 µg/mL.
For the molecule `CNC(CC(C)C)C(=O)NC1C(=O)NC(CC(N)=O)C(=O)NC2C(=O)NC3C(=O)NC(C(=O)NC(C(=O)O)c4cc(O)cc(O)c4-c4cc3ccc4O)C(OC3CC(C)(N)C(O)C(C)O3)c3ccc(c(Cl)c3)Oc3cc2cc(c3OC2OC(CO)C(O)C(O)C2OC2CC(C)(NCc3ccc(-c4ccc(C)c(C)c4)cc3)C(O)C(C)O2)Oc2ccc(cc2Cl)C1O` (stereo not shown) [Compound 221], the MIC in experiment [1] was 0.5 µg/mL (≈ 0.28 µM); in [2] it was 1 µg/mL (≈ 0.56 µM); in [3], at most 0.06 µg/mL; in experiment [5] it was 1 µg/mL (≈ 0.56 µM); in [6], 0.5 µg/mL (≈ 0.28 µM); in experiment [7], at most 0.06 µg/mL. In addition, the MIC in [8] was 1 µg/mL (≈ 0.56 µM); in experiment [21] it was 0.5 µg/mL (≈ 0.28 µM); in experiment [9] it was 0.5 µg/mL (≈ 0.28 µM); in experiment [10] it was at most 0.06 µg/mL; in experiment [11], at most 0.06 µg/mL; in experiment [12], at most 0.06 µg/mL. Further, the MIC in [13] was 2 µg/mL (≈ 1.12 µM); in experiment [14], 32 µg/mL (≈ 17.9 µM); in [16] it was 1 µg/mL (≈ 0.56 µM); in experiment [17], 2 µg/mL (≈ 1.12 µM); in experiment [18] it was at most 0.06 µg/mL. Also, in experiment [19], the “mean geometric MIC, Vancomycin Resistant Strains” value is 0.71 µg/mL. The “mean geometric MIC, Vancomycin Sensitive Strains” value in experiment [20] stood at 0.041 µg/mL.
